Measurements from ChEMBL document CHEMBL4808179 (Bioorg Med Chem Lett, 2021).
In brackets after ≈: the same amount, converted by molar mass.

How the values were obtained:
Type in all cases: functional
Staphylococcus aureus [1] = assay: Antibacterial activity against methicillin-resistant Staphylococcus aureus USA300 assessed as bacterial growth inhibition
Staphylococcus aureus [2] = assay: Antibacterial activity against methicillin-resistant Staphylococcus aureus HS-663 assessed as bacterial growth inhibition
Staphylococcus aureus [3] = assay: Antibacterial activity against vancomycin-intermediate Staphylococcus aureus Mu50 assessed as bacterial growth inhibition
Staphylococcus aureus [4] = assay: Antibacterial activity against methicillin-susceptible Staphylococcus aureus Newman assessed as bacterial growth inhibition
Escherichia coli = assay: Antibacterial activity against Escherichia coli AB1157 assessed as bacterial growth inhibition
Acinetobacter baumannii = assay: Antibacterial activity against Acinetobacter baumannii assessed as bacterial growth inhibition
Enterococcus faecium [5] = assay: Antibacterial activity against vancomycin resistant Enterococcus faecium Van A HS-06188 assessed as inhibition of bacterial growth
Enterococcus faecium [6] = assay: Antibacterial activity against vancomycin resistant Enterococcus faecium Van M HS-0847 assessed as inhibition of bacterial growth
Enterococcus faecium [7] = assay: Antibacterial activity against vancomycin resistant Enterococcus faecium Van M HS-08267 assessed as inhibition of bacterial growth
Enterococcus faecium [8] = assay: Antibacterial activity against vancomycin resistant Enterococcus faecium Van B V(R) assessed as inhibition of bacterial growth
Enterococcus faecium [9] = assay: Antibacterial activity against vancomycin resistant Enterococcus faecium Van A HS-0649 assessed as inhibition of bacterial growth

| Compound | MIC (Staphylococcus aureus [1]) [µg/mL] | MIC (Staphylococcus aureus [2]) [µg/mL] | MIC (Staphylococcus aureus [3]) [µg/mL] | MIC (Staphylococcus aureus [4]) [µg/mL] | MIC (Escherichia coli) [µg/mL] | MIC (Acinetobacter baumannii) [µg/mL] | MIC (Enterococcus faecium [5]) [µg/mL] | MIC (Enterococcus faecium [6]) [µg/mL] | MIC (Enterococcus faecium [7]) [µg/mL] | MIC (Enterococcus faecium [8]) [µg/mL] | MIC (Enterococcus faecium [9]) [µg/mL] |
| --- | --- | --- | --- | --- | --- | --- | --- | --- | --- | --- | --- |
| CN[C@H](CC(C)C)C(=O)N[C@H]1C(=O)N[C@@H](CC(N)=O)C(=O)N[C@H]2C(=O)N[C@H]3C(=O)N[C@H](C(=O)N[C@H](C(=O)N[C@@H](CS)C(=O)N[C@@H](CCCNC(=N)N)C(=O)N[C@@H](CCCCN)C(=O)N[C@H](C(=O)N[C@@H](CCCNC(=N)N)C(=O)NCC(=O)N4CCC[C@H]4C(=O)N4CCC[C@H]4C(=O)O)C(C)C)c4cc(O)cc(O)c4-c4cc3ccc4O)[C@H](O)c3ccc(c(Cl)c3)Oc3cc2cc(c3O[C@@H]2O[C@H](CO)[C@@H](O)[C@H](O)[C@H]2O[C@H]2C[C@](C)(N)[C@H](O)[C@H](C)O2)Oc2ccc(cc2Cl)[C@H]1O | 16 (≈ 6.83 µM) | 16 (≈ 6.83 µM) | 64 (≈ 27.3 µM) | 32 (≈ 13.7 µM) | > 128 | > 128 | 16 (≈ 6.83 µM) | 32 (≈ 13.7 µM) | 32 (≈ 13.7 µM) | 16 (≈ 6.83 µM) |  |
| CN[C@H](CC(C)C)C(=O)N[C@H]1C(=O)N[C@@H](CC(N)=O)C(=O)N[C@H]2C(=O)N[C@H]3C(=O)N[C@H](C(=O)N[C@H](C(=O)NNCc4ccccc4)c4cc(O)cc(O)c4-c4cc3ccc4O)[C@H](O)c3ccc(c(Cl)c3)Oc3cc2cc(c3O[C@@H]2O[C@H](CO)[C@@H](O)[C@H](O)[C@H]2O[C@H]2C[C@](C)(N)[C@H](O)[C@H](C)O2)Oc2ccc(cc2Cl)[C@H]1O | 1 (≈ 0.644 µM) | 0.25 (≈ 0.161 µM) | 4 (≈ 2.57 µM) | 1 (≈ 0.644 µM) | > 128 | > 128 | 64 (≈ 41.2 µM) | 64 (≈ 41.2 µM) | 32 (≈ 20.6 µM) | 128 (≈ 82.4 µM) | 128 (≈ 82.4 µM) |
| CC[C@H](C)[C@H](NC(=O)[C@H](CCCCN)NC(=O)[C@@H](NC(=O)[C@H](CC(N)=O)NC(=O)[C@H](CS)NC(=O)[C@H]1NC(=O)[C@H]2NC(=O)[C@H](NC(=O)[C@@H]3NC(=O)[C@H](CC(N)=O)NC(=O)[C@H](NC(=O)[C@@H](CC(C)C)NC)[C@H](O)c4ccc(c(Cl)c4)Oc4cc3cc(c4O[C@@H]3O[C@H](CO)[C@@H](O)[C@H](O)[C@H]3O[C@H]3C[C@](C)(N)[C@H](O)[C@H](C)O3)Oc3ccc(cc3Cl)[C@H]2O)c2ccc(O)c(c2)-c2c(O)cc(O)cc21)[C@@H](C)CC)C(=O)N[C@@H](CO)C(=O)NCC(=O)N[C@@H](CCCCN)C(=O)N[C@@H](Cc1c[nH]c2ccccc12)C(=O)N[C@@H](CCCCN)C(=O)N[C@@H](C)C(=O)N[C@@H](CCC(N)=O)C(=O)N[C@@H](CCCCN)C(=O)N[C@@H](CCCNC(=N)N)C(=O)N[C@@H](Cc1ccccc1)C(=O)N[C@@H](CC(C)C)C(=O)O | 32 (≈ 9.55 µM) | 16 (≈ 4.77 µM) | 32 (≈ 9.55 µM) | 32 (≈ 9.55 µM) | > 128 | > 128 | 64 (≈ 19.1 µM) | 32 (≈ 9.55 µM) | 32 (≈ 9.55 µM) | 32 (≈ 9.55 µM) |  |
| CN[C@H](CC(C)C)C(=O)N[C@H]1C(=O)N[C@@H](CC(N)=O)C(=O)N[C@H]2C(=O)N[C@H]3C(=O)N[C@H](C(=O)N[C@H](C(=O)O)c4cc(O)cc(O)c4-c4cc3ccc4O)[C@H](O)c3ccc(c(Cl)c3)Oc3cc2cc(c3O[C@@H]2O[C@H](CO)[C@@H](O)[C@H](O)[C@H]2O[C@H]2C[C@](C)(N)[C@H](O)[C@H](C)O2)Oc2ccc(cc2Cl)[C@H]1O [VANCOMYCIN] |  | 0.25 (≈ 0.173 µM) | 8 (≈ 5.52 µM) |  |  |  |  | 64 (≈ 44.2 µM) |  |  |  |
